16 compounds from patent US20210070748A1, “INHIBITORS OF BRUTONS TYROSINE KINASE” (Pharmacyclics LLC, priority 2015, published 2021) can be followed below.

SMILES strings stand for the structures. Where two headings read alike, the source gives them in different places.

The target of one assay is T1, ITK (Homo sapiens, UniProt Q08881).
T1 sequence (Q08881 1-620): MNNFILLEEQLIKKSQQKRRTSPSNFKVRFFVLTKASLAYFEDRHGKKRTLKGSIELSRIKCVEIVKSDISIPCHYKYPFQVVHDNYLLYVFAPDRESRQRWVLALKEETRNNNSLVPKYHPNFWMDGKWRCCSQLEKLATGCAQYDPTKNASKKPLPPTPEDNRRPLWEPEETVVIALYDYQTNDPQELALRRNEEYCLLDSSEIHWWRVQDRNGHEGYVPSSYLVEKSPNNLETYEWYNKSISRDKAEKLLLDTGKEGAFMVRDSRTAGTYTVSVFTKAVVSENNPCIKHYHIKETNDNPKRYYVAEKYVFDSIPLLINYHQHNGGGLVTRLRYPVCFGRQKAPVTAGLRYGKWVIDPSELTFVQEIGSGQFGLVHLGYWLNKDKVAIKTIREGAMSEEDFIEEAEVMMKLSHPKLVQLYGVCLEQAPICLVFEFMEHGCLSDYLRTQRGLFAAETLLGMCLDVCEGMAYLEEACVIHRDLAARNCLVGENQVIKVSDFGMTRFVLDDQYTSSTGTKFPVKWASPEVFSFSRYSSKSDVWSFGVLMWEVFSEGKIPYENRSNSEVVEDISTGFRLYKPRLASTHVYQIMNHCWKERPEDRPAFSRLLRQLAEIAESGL
Kind of assay: Inhibition of a panel of kinases, in vitro HotSpot kinase assay: ITK. Format: biochemical. How it is done:
The degree of inhibition of a panel of kinases is determined using the in vitro HotSpot kinase assay (purified enzymes, ^33P-ATP, an appropriate substrate and 1 μM ATP).

The target in the next assay is T2, BTK-WT (Homo sapiens, UniProt Q06187).
T2 construct: purified from insect cells as a full-length construct containing an N-terminal 6X-His tag; His6 (N); made in house; host or cells: insect cells (baculovirus Sf21 in Method B)
The assay is described as follows: Btk in vitro inhibitory activity (one of Method A TR-FRET, Method B electrophoretic mobility shift, Method C radiometric filter binding). Format: biochemical. Conditions: read-out: IC50 BTK-WT.

Where [1] appears, read: Table 15, C compounds, 1 μM ATP.

T2 sequence (Q06187 whole entry): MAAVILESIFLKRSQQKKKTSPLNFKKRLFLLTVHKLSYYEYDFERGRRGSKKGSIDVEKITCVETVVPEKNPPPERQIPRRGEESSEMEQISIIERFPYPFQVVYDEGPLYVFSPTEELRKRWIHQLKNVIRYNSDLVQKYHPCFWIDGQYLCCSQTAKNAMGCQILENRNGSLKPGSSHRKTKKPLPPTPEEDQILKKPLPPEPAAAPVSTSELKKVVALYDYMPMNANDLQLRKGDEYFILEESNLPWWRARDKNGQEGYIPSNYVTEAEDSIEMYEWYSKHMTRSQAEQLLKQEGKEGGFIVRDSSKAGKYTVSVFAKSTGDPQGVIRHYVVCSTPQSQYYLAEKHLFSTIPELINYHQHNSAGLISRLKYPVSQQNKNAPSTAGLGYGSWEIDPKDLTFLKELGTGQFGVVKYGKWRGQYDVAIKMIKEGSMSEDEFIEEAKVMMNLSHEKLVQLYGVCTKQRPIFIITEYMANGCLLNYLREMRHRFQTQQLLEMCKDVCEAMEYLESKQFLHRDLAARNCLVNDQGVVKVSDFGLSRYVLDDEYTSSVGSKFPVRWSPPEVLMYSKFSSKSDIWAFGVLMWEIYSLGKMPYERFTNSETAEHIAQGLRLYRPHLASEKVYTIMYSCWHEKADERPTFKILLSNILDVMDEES

For the compound `C=CC(=O)N1CCC[C@@H](N(C(=O)C=C)c2nnc(C(N)=O)c(Nc3ccc(C4CC4)cc3)n2)C1` [Example E-37, (R)-3-(N-(1-acryloylpiperidin-3-yl)acrylamido)-5-(4-cyclopropylphenyl-amino)-1,2,4-triazine-6-carboxamide], the IC50 on ITK (E compounds, Table 17) was 1000 to 10000 nM; at BTK-WT (E compounds, Table 17), not above 10 nM.

For `C=CC(=O)N1CCC[C@H](N(C)c2nnc(C(N)=O)c(Nc3ccc(C(C)C)cc3)n2)C1` [Example C-43, (S)-3-((1-acryloylpiperidin-3-yl)(methyl)amino)-5-(4-isopropylphenylamino)-1,2,4-triazine-6-carboxamide], the IC50 against ITK (setting [1]) was 10 to 100 nM; on BTK-WT (Table 15, C compounds) it was not above 10 nM.

With `C=CC(=O)N1CCC[C@@H](Nc2nnc(C(N)=O)c(Nc3ccc(-c4cnn(C(=O)C=C)c4)cc3)n2)C1` [Example E-60, (R)-5-(4-(1-acryloyl-1H-pyrazol-4-yl)phenylamino)-3-(1-acryloylpiperidin-3-ylamino)-1,2,4-triazine-6-carboxamide], the IC50 against ITK (E compounds, Table 17) was 10 to 100 nM; on BTK-WT (E compounds, Table 17), not above 10 nM.

Consider `C=CC(=O)N[C@H]1CCCN(c2nnc(C(N)=O)c(Nc3ccc(C(C)C)cc3)n2)C1` [Example E-22, (S)-3-(3-acrylamidopiperidin-1-yl)-5-(4-isopropylphenylamino)-1,2,4-triazine-6-carboxamide], for which the IC50 on ITK (E compounds, Table 17) lay in the range of 100 to 1000 nM; at BTK-WT (E compounds, Table 17) it was 10 to 100 nM.

For `C=CC(=O)N1CCC[C@@H](Nc2nnc(C(N)=O)c(Nc3ccc(C4(C#N)CC4)cc3)n2)C1` [Example E-38, (R)-3-(1-acryloylpiperidin-3-ylamino)-5-(4-(1-cyanocyclopropyl)phenylamino)-1,2,4-triazine-6-carboxamide], the IC50 at ITK (E compounds, Table 17) was not above 10 nM; on BTK-WT (E compounds, Table 17), not above 10 nM.

Regarding `C=CC(=O)N1CCC[C@@H](Nc2nnc(C(N)=O)c(Nc3cccc(C)c3)n2)C1` [Example C-55, (R)-3-(1-acryloylpiperidin-3-ylamino)-5-(m-tolylamino)-1,2,4-triazine-6-carboxamide], the IC50 on ITK (setting [1]) is 10 to 100 nM; at BTK-WT (Table 15, C compounds) it was not above 10 nM.

As for `CCC(=O)N1CCC[C@@H](Nc2nnc(C(N)=O)c(Nc3ccc(C(C)(C)C)cc3)n2)C1` [Example E-35, (R)-5-(4-tert-butylphenylamino)-3-(1-propionylpiperidin-3-ylamino)-1,2,4-triazine-6-carboxamide], the IC50 against ITK (E compounds, Table 17) is 100 to 1000 nM; on BTK-WT (E compounds, Table 17) it was not above 10 nM.

With `C=CC(=O)N1CCC[C@@H](Nc2nnc(C(N)=O)c(Nc3ccc4c(c3)CCC(=O)N4C)n2)C1` [Example E-71, (R)-3-(1-acryloylpiperidin-3-ylamino)-5-(1-methyl-2-oxo-1,2,3,4-tetrahydroquinolin-6-ylamino)-1,2,4-triazine-6-carboxamide], the IC50 on ITK (E compounds, Table 17) is not above 10 nM; at BTK-WT (E compounds, Table 17) it was not above 10 nM.

As for `C=CC(=O)N[C@@H]1CCCC[C@@H]1Nc1nnc(C(N)=O)c(Nc2ccc(C(C)C)cc2)n1` [Example E-34, 3-((1S,2R)-2-acrylamidocyclohexyl-amino)-5-(4-isopropylphenylamino)-1,2,4-triazine-6-carboxamide], the concentration for half-maximal inhibition (IC50) at ITK (E compounds, Table 17) lay in the range of 100 to 1000 nM; at BTK-WT (E compounds, Table 17), 10 to 100 nM.

For `C=CC(=O)N1CCC[C@@H](N(C(=O)C=C)c2nnc(C(N)=O)c(Nc3ccc(C4(C#N)CC4)cc3)n2)C1` [Example E-39, (R)-3-(N-(1-acryloylpiperidin-3-yl)acrylamido)-5-(4-(1-cyanocyclopropyl)phenylamino)-1,2,4-triazine-6-carboxamide], the IC50 is 100 to 1000 nM on ITK (E compounds, Table 17) and not above 10 nM at BTK-WT (E compounds, Table 17).

With `C=CC(=O)N1CCCC[C@@H](Nc2nnc(C(N)=O)c(Nc3ccc(C(C)C)cc3)n2)C1` [Example E-20, (R)-3-(1-acryloylazepan-3-ylamino)-5-(4-isopropylphenylamino)-1,2,4-triazine-6-carboxamide], the half-inhibitory concentration (IC50) at ITK (E compounds, Table 17) is not above 10 nM; at BTK-WT (E compounds, Table 17), not above 10 nM.

As to `C=CC(=O)N1CCC[C@@H](N(C(=O)C=C)c2nnc(C(N)=O)c(Nc3ccc(C4(C#N)CC4)cc3)n2)C1` [Example C-50, (R)-3-(N-(1-acryloylpiperidin-3-yl)acrylamido)-5-(4-(1-cyanocyclopropyl)phenylamino)-1,2,4-triazine-6-carboxamide], the IC50 is 100 to 1000 nM against ITK (setting [1]) and not above 10 nM at BTK-WT (Table 15, C compounds).

Turning to `C=CC(=O)N[C@H]1CCCC[C@@H]1Nc1nnc(C(N)=O)c(Nc2ccc(C(C)C)cc2)n1` [Example E-29, 3-((1S,2S)-2-acrylamidocyclohexyl-amino)-5-(4-isopropylphenylamino)-1,2,4-triazine-6-carboxamide], the IC50 was 100 to 1000 nM against ITK (E compounds, Table 17) and not above 10 nM at BTK-WT (E compounds, Table 17).

Turning to `CCC(=O)N1CCC[C@@H](Nc2nnc(C(N)=O)c(Nc3ccc(C(C)(C)C)cc3)n2)C1` [Example C-46, (R)-5-(4-tert-butylphenylamino)-3-(1-propionylpiperidin-3-ylamino)-1,2,4-triazine-6-carboxamide], the IC50 is 100 to 1000 nM against ITK (setting [1]) and not above 10 nM at BTK-WT (Table 15, C compounds).

In the case of `C=CC(=O)N1CCCC[C@H](Nc2nnc(C(N)=O)c(Nc3ccc(C(C)C)cc3)n2)C1` [Example E-19, (S)-3-(1-acryloylazepan-3-ylamino)-5-(4-isopropylphenylamino)-1,2,4-triazine-6-carboxamide], the IC50 against ITK (E compounds, Table 17) was 100 to 1000 nM; at BTK-WT (E compounds, Table 17) it was not above 10 nM.

In the case of `C=CC(=O)N1CCC[C@H](Nc2cnc(C(N)=O)c(Nc3ccc(-c4ncccn4)cc3)n2)C1` [Example C-36, (S)-5-(1-acryloylpiperidin-3-ylamino)-3-(4-(pyrimidin-2-yl)phenylamino) pyrazine-2-carboxamide], the IC50 was 100 to 1000 nM on ITK (setting [1]) and not above 10 nM on BTK-WT (Table 15, C compounds).
